Results from publication PMC7385556 (ACS chemical biology, 2020).
Where “and” joins values, the source holds several entries; their conditions need not be identical. Equal entries are not always repeated.

Test system: Mtb H37Rv mc^2 6230
Experiment: MIC of compounds alone against Mtb H37Rv mc^2 6230
Assay type: cell-based, Mycobacterium tuberculosis
Settings: compound alone, absence of KAN

Structure (SMILES): NC[C@H]1O[C@H](O[C@H]2[C@H](O)[C@@H](O[C@H]3O[C@H](CO)[C@@H](O)[C@H](N)[C@H]3O)[C@H](N)C[C@@H]2N)[C@H](O)[C@@H](O)[C@@H]1O [KAN, kanamycin]
- H37Rv mc^2 6230 MIC: <1 μg/mL and <1.72 μM
